Assay results as given in patent US20140371069A1, “Short-Chain Alkyl Sulfonates in Pesticide Formulations and Applications” (priority 2011, published 2014).
Like-named read-outs stand apart in the source and are kept apart here.

What was measured:
[1] = Stability of pesticide formulation containing glufosinate-ammonium and C8 ether sulfate at 1:1 weight ratio with test hydrotrope
Excerpt: Specifically, the pesticide active in the pesticide formulation is glufosinate-ammonium and the adjuvant is C8 ether sulfate.

[2] = Separation of the formulations on standing at room temperature (ternary diagram); format: physicochemical; conditions: for region of stability (blue region) in ternary diagram of percentage of separation: glufosinate ammonium 25.8%, C8 ether sulfate 30.6%, hydrotrope 0-10%, propylene glycol 0-15% w/w
Protocol: A design experiment was performed in which pesticide formulations containing the following were prepared: [table] The formulations were allowed to sit for 24 hours at room temperature and the stability of the formulations was assessed. FIG. 1 illustrates the results of the experiment. FIG. 1 is a ternary diagram showing regions of varying percentages of separation after 24 hours at room temperature of the formulations containing the above-listed components. The numbers associated with the small colored bar in the upper left hand corner of the figure indicate the percentage of separation in the samples. The colors in the bar correspond to the colored regions in the ternary diagram. […] An experiment was performed in which pesticide formulations containing the following were prepared: [table] The formulations were allowed to sit for two hours at room temperature and the stability of the formulations was assessed. FIG. 3 illustrates the results of the experiment. FIG. 3 is a ternary diagram showing regions of varying percentages of separation after two hours at room temperature of the formulations containing the above-listed components.

[3] = Separation of the formulations after one freeze/thaw cycle (ternary diagram); format: physicochemical; conditions: FIG. 2 versus FIG. 4
Protocol: The formulations listed in Example 1 were subjected to a freeze/thaw cycle in which the formulations were frozen and thawed to room temperature. The stability of the formulations was then assessed. FIG. 2 illustrates the results of the assessment. FIG. 2 is a ternary diagram showing regions of varying percentages of separation after one freeze/thaw cycle of the formulations.
A freeze/thaw cycle changes the solubility of some of the components, therefore, by subjecting the formulations to a freeze/thaw cycle, the effect of the solubility change on the stability of the formulations can be assessed.
The formulations listed in Comparative Example 1 were subjected to a freeze/thaw cycle and the stability of the formulations was subsequently assessed. FIG. 4 illustrates the results of the assessment. FIG. 4 is a ternary diagram showing regions of varying percentages of separation after one freeze/thaw cycle of the formulations.

[4] = glufosinate-ammonium and C8 ether sulfate at 1:1 weight ratio
[5] = after 24 hours at room temperature, FIG. 1

| Compound | stability of the pesticide formulation containing the material as hydrotrope [1] | stability of the pesticide formulation containing the material as hydrotrope [1, 4] | further results |
| --- | --- | --- | --- |
| COC(C)COC(C)CO (stereo not drawn) [dipropylene glycol monomethyl ether] | developed two phases that separated very quickly |  |  |
| CC(O)CO (stereo not drawn) [propylene glycol] |  | developed two phases that separated very quickly |  |
| CC(C)c1ccc(S(=O)(=O)[O-])cc1.[Na+] [sodium cumene sulfonate] |  | developed two phases that separated very quickly |  |
| CCCCCCCCS(=O)(=O)[O-].[Na+] [sodium octane sulfonate] |  |  | effectiveness as a hydrotrope in the formulations [2, 5]: effective as a hydrotrope; region of stability (blue region) in ternary diagram of percentage of separation [2, 5]: large; effectiveness as a hydrotrope compared with sodium xylene sulfonate ([2]; room temperature, FIG. 1 (24 hours) versus FIG. 3 (two hours)): significantly more effective as a hydrotrope than sodium xylene sulfonate; effectiveness as a hydrotrope compared with sodium xylene sulfonate [3]: more effective as a hydrotrope than sodium xylene sulfonate |
| C4 alcohol+2EO sulfate ester sodium salt | developed two phases that separated very quickly |  |  |
| C4 alcohol+4EO sulfate esters sodium salt | developed two phases that separated very quickly |  |  |
| C6 alcohol+4EO sodium salt | developed two phases that separated very quickly |  |  |
| sodium xylene sulfonate |  | developed two phases that separated very quickly | region of stability (blue region) in ternary diagram of percentage of separation ([2]; after two hours at room temperature, FIG. 3): small |
